Results taken from PubChem BioAssay AID1053178 (The Scripps Research Institute Molecular Screening Center, 2014).
Calls of active or inactive are those of the source.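 Rule for the calls: active = IC50 at or below 10 µM; inactive = IC50 above 10 µM.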

Molecular target: Trace amine-associated receptor 1 (Homo sapiens) (UniProt Q96RJ0)
Assay: blockers of human TAAR1 receptor – cell-based, fluorescence, MDRUN002, late-stage follow-up (AID 1053178)
Conditions: CHO TAAR1 cells, cAMP TR-FRET, PEA-stimulated antagonism

Trace amine-associated receptor 1 (Homo sapiens), sequence (Q96RJ0 whole entry, looked up): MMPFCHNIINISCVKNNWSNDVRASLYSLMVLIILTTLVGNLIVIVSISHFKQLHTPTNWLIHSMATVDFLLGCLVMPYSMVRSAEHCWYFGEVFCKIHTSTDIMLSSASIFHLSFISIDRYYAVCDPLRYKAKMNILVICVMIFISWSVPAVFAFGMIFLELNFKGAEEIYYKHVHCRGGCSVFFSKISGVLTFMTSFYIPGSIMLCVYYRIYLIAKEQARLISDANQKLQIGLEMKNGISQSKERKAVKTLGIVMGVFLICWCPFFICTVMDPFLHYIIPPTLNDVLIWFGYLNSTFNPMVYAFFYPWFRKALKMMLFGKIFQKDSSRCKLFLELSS

SMILES: N#Cc1c(C(F)(F)F)cc(-c2ccc(Cl)cc2)nc1SCC(=O)N1CCCC1
- IC50: 0.179 µM

SMILES: N#Cc1c(C(F)(F)F)cc(-c2ccc(Cl)cc2)nc1SCC(=O)Nc1ncccn1
- IC50: 0.00433 µM

SMILES: CC(CN1CCCC1Cc1ccccc1)C(=O)c1ccc2c(c1)OCCO2 (configuration not stated)
- IC50: > 37.4 µM (inactive)

SMILES: COc1cc(C(=O)CCN2CCC(c3ccccc3)C2)cc(OC)c1OC (configuration not stated)
- IC50: > 37.4 µM (inactive)

SMILES: O=C(CCN1CCC(c2ccccc2)C1)c1ccccc1 (configuration not stated)
- IC50: > 37.4 µM (inactive)

SMILES: N#Cc1c(C(F)(F)F)cc(-c2ccc(Cl)cc2)nc1SCC(=O)N1CCCCCC1
- IC50: inactive

SMILES: Cc1ccc(C(=O)CCN2CCC(c3ccccc3)C2)cc1 (configuration not stated)
- IC50: > 37.4 µM (inactive)
